Holding throughout (assay): Post-emergence efficacy, Method A
Common to all, as to type: in vivo
Common to all, as to conditions: evaluated after 13 days

Experiment [1] concerns Amaranthus palmeri (AMAPA). A digest of the protocol:
(§1)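 Post-emergence spray on 14-day-old glasshouse plants (24/16 °C day/night, 14 h photoperiod, 65% humidity). Test material was taken up in acetone and IF50 emulsifier mix, then diluted with sodium lauryl ether sulphate (0.25% or 1%) plus 1% ammonium sulphate. Damage was rated 13 days later, 100 = total.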

Experiment [2] concerns Chenopodium album (CHEAL). An outline of the steps: as §1
Experiment [3] concerns Ipomoea hederacea (IPOHE). An outline of the steps: as §1
In experiment [4] the test system is Digitaria sanguinalis (DIGSA). A digest of the protocol:
as §1

The subject of experiment [5] is Euphorbia heterophylla (EPHHL). A digest of the protocol: as §1
The test system of another experiment is Lolium perenne (LOLPE). A digest of the protocol:
as §1

Experiment [6] deals with Echinochloa crus-galli (ECHCG). An outline of the steps:
as §1

Another experiment relates to Setaria faberi (SETFA). An outline of the steps:
as §1

A further experiment deals with Eleusine indica (ELEIN). An outline of the steps: as §1
The mark [7] stands for this setting: Amaranthus palmeri, post-emergence, 312 h, Application Rate 500 g/Ha, Method A, read-out: Control of weed species after post-emergence application, AMAPA (100=total damage to plant; 0=no damage to plant).
Setting [8] is: Chenopodium album, post-emergence, 312 h, Application Rate 500 g/Ha, Method A, read-out: Control of weed species after post-emergence application, CHEAL (100=total damage to plant; 0=no damage to plant).
The mark [9] stands for this setting: Ipomoea hederacea, post-emergence, 312 h, Application Rate 500 g/Ha, Method A, read-out: Control of weed species after post-emergence application, IPOHE (100=total damage to plant; 0=no damage to plant).
[10] abbreviates: Digitaria sanguinalis, post-emergence, 312 h, Application Rate 500 g/Ha, Method A, read-out: Control of weed species after post-emergence application, DIGSA (100=total damage to plant; 0=no damage to plant).
Where [11] appears, read: Euphorbia heterophylla, post-emergence, 312 h, Application Rate 500 g/Ha, Method A, read-out: Control of weed species after post-emergence application, EPHHL (100=total damage to plant; 0=no damage to plant).
Setting [12] is: Lolium perenne, post-emergence, 312 h, Application Rate 500 g/Ha, Method A, read-out: Control of weed species after post-emergence application, LOLPE (100=total damage to plant; 0=no damage to plant).
The mark [13] stands for this setting: Echinochloa crus-galli, post-emergence, 312 h, Application Rate 500 g/Ha, Method A, read-out: Control of weed species after post-emergence application, ECHCG (100=total damage to plant; 0=no damage to plant).
[14] abbreviates: Setaria faberi, post-emergence, 312 h, Application Rate 500 g/Ha, Method A, read-out: Control of weed species after post-emergence application, SETFA (100=total damage to plant; 0=no damage to plant).
[15] abbreviates: Eleusine indica, post-emergence, 312 h, Application Rate 500 g/Ha, Method A, read-out: Control of weed species after post-emergence application, ELEIN (100=total damage to plant; 0=no damage to plant).
Where [16] appears, read: Amaranthus palmeri, post-emergence, 312 h, Application rate 500 g/Ha, 100=total damage to plant, 0=no damage to plant, read-out: Control of weed species after post-emergence application, AMAPA.
Where [17] appears, read: Chenopodium album, post-emergence, 312 h, Application rate 500 g/Ha, 100=total damage to plant, 0=no damage to plant, read-out: Control of weed species after post-emergence application, CHEAL.
The mark [18] stands for this setting: Ipomoea hederacea, post-emergence, 312 h, Application rate 500 g/Ha, 100=total damage to plant, 0=no damage to plant, read-out: Control of weed species after post-emergence application, IPOHE.
Setting [19] is: Digitaria sanguinalis, post-emergence, 312 h, Application rate 500 g/Ha, 100=total damage to plant, 0=no damage to plant, read-out: Control of weed species after post-emergence application, DIGSA.
The mark [20] stands for this setting: Euphorbia heterophylla, post-emergence, 312 h, Application rate 500 g/Ha, 100=total damage to plant, 0=no damage to plant, read-out: Control of weed species after post-emergence application, EPHHL.
Setting [21] is: Lolium perenne, post-emergence, 312 h, Application rate 500 g/Ha, 100=total damage to plant, 0=no damage to plant, read-out: Control of weed species after post-emergence application, LOLPE.
[22] abbreviates: Echinochloa crus-galli, post-emergence, 312 h, Application rate 500 g/Ha, 100=total damage to plant, 0=no damage to plant, read-out: Control of weed species after post-emergence application, ECHCG.
The mark [23] stands for this setting: Setaria faberi, post-emergence, 312 h, Application rate 500 g/Ha, 100=total damage to plant, 0=no damage to plant, read-out: Control of weed species after post-emergence application, SETFA.
The mark [24] stands for this setting: Eleusine indica, post-emergence, 312 h, Application rate 500 g/Ha, 100=total damage to plant, 0=no damage to plant, read-out: Control of weed species after post-emergence application, ELEIN.
Where [25] appears, read: Application rate 500 g/Ha, 100=total damage to plant, 0=no damage to plant.

Like-named read-outs stand apart in the source and are kept apart here.

On to `CN(C)S(=O)(=O)[N-]C(=O)C[n+]1ccc(-c2ncccn2)cn1` [Compound A214, dimethylsulfamoyl-[2-(4-pyrimidin-2-ylpyridazin-1-ium-1-yl)acetyl]azanide], for which the pest or weed control at 500 g/ha was 100% in experiment [1] (setting [7]); 100% in [2] (setting [8]); 40% in [3] (setting [9]); 100% in experiment [4] (setting [10]); 100% in experiment [5] (setting [11]); 80% in the experiment on Lolium perenne (LOLPE) (setting [12]). The values for the pest or weed control at 500 g/ha (in [6] (setting [13]); in the experiment with Setaria faberi (SETFA) (setting [14]); with Eleusine indica (ELEIN) (setting [15])) were 100%, 90% and 100%, respectively.
With `O=S(=O)([O-])CC[n+]1ccc(-c2cc(C(F)(F)F)ncn2)cn1` [Compound A109], the pest or weed control at 500 g/ha in experiment [1] (setting [16]) is 60%; in experiment [2] (setting [17]), 60%; in [3] (setting [18]), 50%; in experiment [4] (setting [19]), 50%; in experiment [5] (setting [20]), 60%; in the experiment on Lolium perenne (LOLPE) (setting [21]), 30%. Further, the pest or weed control at 500 g/ha in experiment [6] (setting [22]) is 40%; in the experiment on Setaria faberi (SETFA) (setting [23]) it was 30%; in the experiment on Eleusine indica (ELEIN) (setting [24]), 50%.
Take `CNS(=O)(=O)c1cnc(-c2cc[n+](CCC(=O)O)nc2)nc1` [Compound A209]: the pest or weed control at 125 g/ha in experiment [1] (Amaranthus palmeri, post-emergence, 312 h, Application Rate 125 g/Ha, Method A, read-out: Control of weed species after post-emergence application, AMAPA (100=total damage to plant; 0=no damage to plant)) is 30%; in [2] (Chenopodium album, post-emergence, 312 h, Application Rate 125 g/Ha, Method A, read-out: Control of weed species after post-emergence application, CHEAL (100=total damage to plant; 0=no damage to plant)), 10%; in experiment [3] (Ipomoea hederacea, post-emergence, 312 h, Application Rate 125 g/Ha, Method A, read-out: Control of weed species after post-emergence application, IPOHE (100=total damage to plant; 0=no damage to plant)) it was 0%; in experiment [4] (Digitaria sanguinalis, post-emergence, 312 h, Application Rate 125 g/Ha, Method A, read-out: Control of weed species after post-emergence application, DIGSA (100=total damage to plant; 0=no damage to plant)), 30%; in experiment [5] (Euphorbia heterophylla, post-emergence, 312 h, Application Rate 125 g/Ha, Method A, read-out: Control of weed species after post-emergence application, EPHHL (100=total damage to plant; 0=no damage to plant)), 0%; with Lolium perenne (LOLPE) (Lolium perenne, post-emergence, 312 h, Application Rate 125 g/Ha, Method A, read-out: Control of weed species after post-emergence application, LOLPE (100=total damage to plant; 0=no damage to plant)), 10%. Also, the pest or weed control at 125 g/ha in experiment [6] (Echinochloa crus-galli, post-emergence, 312 h, Application Rate 125 g/Ha, Method A, read-out: Control of weed species after post-emergence application, ECHCG (100=total damage to plant; 0=no damage to plant)) turned out to be 10%; in the experiment on Setaria faberi (SETFA) (Setaria faberi, post-emergence, 312 h, Application Rate 125 g/Ha, Method A, read-out: Control of weed species after post-emergence application, SETFA (100=total damage to plant; 0=no damage to plant)), 20%; with Eleusine indica (ELEIN) (Eleusine indica, post-emergence, 312 h, Application Rate 125 g/Ha, Method A, read-out: Control of weed species after post-emergence application, ELEIN (100=total damage to plant; 0=no damage to plant)) it was 0%.
As to `O=C(O)CC[n+]1ccc(-c2ncc(F)cc2F)cn1` [Compound A144], the pest or weed control at 500 g/ha came out at 20% in experiment [1] (setting [16]); 10% in experiment [2] (setting [17]); 10% in experiment [3] (setting [18]); 30% in experiment [4] (setting [19]); 20% in experiment [5] (setting [20]); 10% in the experiment on Lolium perenne (LOLPE) (setting [21]). Further, the pest or weed control at 500 g/ha (in experiment [6] (setting [22]); with Setaria faberi (SETFA) (setting [23]); in the experiment with Eleusine indica (ELEIN) (setting [24])) was 20% in each case.
Turning to `O=S(=O)([O-])CC[n+]1ccc(-c2ccc(Cl)cn2)cn1` [Compound A69], the pest or weed control at 500 g/ha worked out at 100% in [1] (setting [16]); 60% in experiment [2] (setting [17]); 40% in experiment [3] (setting [18]); 50% in [4] (setting [19]); 50% in experiment [5] (setting [20]); 50% in the experiment on Lolium perenne (LOLPE) (setting [21]). Besides, the pest or weed control at 500 g/ha in experiment [6] (setting [22]) amounted to 40%; in the experiment with Setaria faberi (SETFA) (setting [23]), 40%; in the experiment with Eleusine indica (ELEIN) (setting [24]), 60%.
Regarding `O=S(=O)([O-])CC[n+]1ccc(-c2nccc(C3CC3)n2)cn1` [Compound A50], the pest or weed control at 500 g/ha in experiment [1] (setting [16]) amounted to 100%; in experiment [2] (setting [17]), 20%; in [3] (setting [18]), 50%; in experiment [4] (setting [19]), 50%; in experiment [5] (setting [20]), 90%; in the experiment with Lolium perenne (LOLPE) (setting [21]), 60%. For the same compound, the figures for the pest or weed control at 500 g/ha (in [6] (setting [22]); in the experiment with Setaria faberi (SETFA) (setting [23]); in the experiment on Eleusine indica (ELEIN) (setting [24])) were 40%, 60% and 90%, respectively.
Regarding `O=C(O)C(O)C[n+]1ccc(-c2ccncn2)cn1` (stereo not drawn) [Compound A190], the pest or weed control at 500 g/ha in experiment [1] (setting [7]) was determined as 100%; in experiment [2] (setting [8]), 80%; in experiment [3] (setting [9]), 70%; in experiment [4] (setting [10]), 60%; in experiment [5] (setting [11]), 80%; in the experiment on Lolium perenne (LOLPE) (setting [12]), 40%. Also, the pest or weed control at 500 g/ha in [6] (setting [13]) amounted to 60%; with Setaria faberi (SETFA) (setting [14]), 40%; in the experiment with Eleusine indica (ELEIN) (setting [15]), 70%.
With `O=C(O)c1ccnc(-c2cc[n+](CCCS(=O)(=O)[O-])nc2)n1` [Compound A146], the “Control of weed species after post-emergence application, AMAPA” value in [1] (setting [25]) is reported as 90. Further, in experiment [2] (setting [25]), the “Control of weed species after post-emergence application, CHEAL” value is given as 40. The “Control of weed species after post-emergence application, IPOHE” value in [3] (setting [25]) was 30. In addition, in [4] (setting [25]), the “Control of weed species after post-emergence application, DIGSA” value is on record as 80. Moreover, in experiment [5] (setting [25]), the “Control of weed species after post-emergence application, EPHHL” value amounted to 50. In addition, the “Control of weed species after post-emergence application, LOLPE” value with Lolium perenne (LOLPE) (setting [25]) came out at 50. Moreover, the “Control of weed species after post-emergence application, ECHCG” value in experiment [6] (setting [25]) stood at 90. Further, the “Control of weed species after post-emergence application, SETFA” value with Setaria faberi (SETFA) (setting [25]) was 100. The “Control of weed species after post-emergence application, ELEIN” value with Eleusine indica (ELEIN) (setting [25]) is reported as 80.
Take `COC(=O)CC[n+]1ccc(-c2cccnn2)cn1` [Compound A139]: the pest or weed control at 500 g/ha in [1] (setting [16]) is 80%; in experiment [2] (setting [17]), 100%; in [3] (setting [18]), 10%; in [4] (setting [19]) it was 100%; in experiment [5] (setting [20]) it was 90%; with Lolium perenne (LOLPE) (setting [21]) it was 90%. Besides, the pest or weed control at 500 g/ha (in experiment [6] (setting [22]); in the experiment on Setaria faberi (SETFA) (setting [23]); in the experiment with Eleusine indica (ELEIN) (setting [24])) was 100% throughout.

These data come from patent US20220125051A1, “PRE-HARVEST DESICCATION METHOD” (SYNGENTA CROP PROTECTION AG, priority 2019, published 2022).
